This assay concerns the target T1, ABCB1 (Homo sapiens, UniProt P08183).
T1 construct: ABCB1 in membrane vesicles from High Five insect cells
As to the kind of experiment: vanadate-sensitive ATPase assay in membrane vesicles. It counts as biochemical.

IC50 data for one molecule are collected here from article PMC11221864, “FRAX486, a PAK inhibitor, overcomes ABCB1-mediated multidrug resistance in breast cancer cells” (Brazilian Journal of Medical and Biological Research, 2024).

pIC50: −log10 of the molar value.

T1 sequence (P08183 whole entry): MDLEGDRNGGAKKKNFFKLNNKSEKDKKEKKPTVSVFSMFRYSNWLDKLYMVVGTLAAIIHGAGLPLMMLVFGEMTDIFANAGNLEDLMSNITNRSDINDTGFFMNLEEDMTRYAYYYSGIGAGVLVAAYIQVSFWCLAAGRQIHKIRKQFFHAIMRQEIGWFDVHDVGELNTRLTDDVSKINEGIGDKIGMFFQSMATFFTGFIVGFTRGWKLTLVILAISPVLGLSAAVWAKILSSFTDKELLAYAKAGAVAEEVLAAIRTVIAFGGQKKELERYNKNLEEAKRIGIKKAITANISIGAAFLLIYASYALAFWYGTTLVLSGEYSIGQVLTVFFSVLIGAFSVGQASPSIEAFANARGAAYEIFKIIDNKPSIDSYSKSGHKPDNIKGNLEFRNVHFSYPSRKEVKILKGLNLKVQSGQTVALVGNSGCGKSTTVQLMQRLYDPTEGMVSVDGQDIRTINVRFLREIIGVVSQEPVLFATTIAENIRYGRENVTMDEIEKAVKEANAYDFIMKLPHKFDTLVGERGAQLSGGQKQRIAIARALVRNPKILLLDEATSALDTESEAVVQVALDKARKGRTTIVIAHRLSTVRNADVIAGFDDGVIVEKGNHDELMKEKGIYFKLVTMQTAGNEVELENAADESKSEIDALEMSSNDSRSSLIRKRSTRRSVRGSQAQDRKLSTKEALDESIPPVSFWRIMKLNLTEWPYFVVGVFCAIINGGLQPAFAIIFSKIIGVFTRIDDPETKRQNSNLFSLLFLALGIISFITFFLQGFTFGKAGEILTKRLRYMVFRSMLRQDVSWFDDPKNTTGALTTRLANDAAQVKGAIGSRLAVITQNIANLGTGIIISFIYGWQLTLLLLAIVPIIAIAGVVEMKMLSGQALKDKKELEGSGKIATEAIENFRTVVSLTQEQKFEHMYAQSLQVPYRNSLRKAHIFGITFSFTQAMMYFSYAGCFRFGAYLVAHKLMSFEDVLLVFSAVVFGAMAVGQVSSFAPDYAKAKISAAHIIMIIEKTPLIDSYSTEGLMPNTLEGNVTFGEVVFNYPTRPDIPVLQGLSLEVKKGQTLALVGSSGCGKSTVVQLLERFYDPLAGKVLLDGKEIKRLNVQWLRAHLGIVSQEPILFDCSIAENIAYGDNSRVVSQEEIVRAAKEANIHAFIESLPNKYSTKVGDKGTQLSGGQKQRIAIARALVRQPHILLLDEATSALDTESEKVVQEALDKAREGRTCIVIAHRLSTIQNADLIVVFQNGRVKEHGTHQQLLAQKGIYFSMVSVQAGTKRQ

The term pIC50 denotes the IC50 on a negative log10 scale, so that one unit is a factor of ten. Regarding `CCn1c(=O)c(-c2ccc(Cl)cc2Cl)cc2cnc(Nc3ccc(N4CCNCC4)c(F)c3)nc21` [FRAX486], the negative logarithm of the IC50 (pIC50) was 7.70.
